{"source": "patent US20240034730A1", "about": "“PYRAZOLO DERIVATIVES AS HUMAN DIHYDROOROTATE DEHYDROGENASE (HDHODH) INHIBITORS FOR USE AS ANTIVIRALS” (DRUG DISCOVERY AND CLINIC S.R.L., priority 2020, published 2024)", "key": {"HSV-1": {"system": "HSV-1", "assay": "Plaque reduction assay (PRA), HSV-1 in Vero cells", "format": "cell-based, Herpes simplex virus 1", "settings": "Human alphaherpesvirus 1, Vero"}, "[1]": {"assay": "Cytotoxicity on MDCK cells (Cell Titer Glo)", "format": "cell-based, Canine", "settings": "dog, read-out: CC50 (Influenza A row)"}, "[2]": {"system": "Influenza A virus (A/Puerto Rico/8/34)", "assay": "microbe, parasite or virus in culture", "format": "cell-based", "settings": "PRA, MDCK cells"}, "[3]": {"assay": "log D (pH 7.4), shake-flask n-octanol/PBS", "settings": "n-octanol/PBS pH 7.4, shake flask", "procedure": "(§1) Lipophilicity. The shake flask method was chosen to determinate logD7.4.\n(§2) The partition coefficients between n-octanol and PBS at pH 7.4 (log D^7.4) were obtained using the shake-flask technique at room temperature. In the shake-flask experiments, 50 mM of phosphate buffered saline pH 7.4 was used as the aqueous phase. The organic (n-octanol) and aqueous phases were mutually saturated by shaking for 4 h. The compounds were solubilized in the buffered aqueous phase at the highest concentration compatible with solubility and appropriate amounts of n-octanol were added. The two phases were shaken for about 20 min, by which time the partitioning equilibrium of solutes had been reached, and then centrifuged (10000 rpm, 10 min)."}, "in vitro [4]": {"assay": "in vitro", "format": "cell-based", "settings": "human"}, "RSV [5]": {"system": "RSV", "assay": "Plaque reduction assay (PRA), RSV in HEp-2 cells", "format": "cell-based", "settings": "human respiratory syncytial virus, HEp-2, read-out: EC50 RSV"}, "HSV-2": {"system": "HSV-2", "assay": "Plaque reduction assay (PRA), HSV-2 in Vero cells", "format": "cell-based, Herpes simplex virus 2", "settings": "Human alphaherpesvirus 2, Vero, read-out: EC50 HSV-2"}, "in vitro [6]": {"assay": "in vitro", "settings": "African green monkey"}, "hCoV-229E": {"system": "hCoV-229E", "assay": "Anti-hCoV-229E activity in MRC5 fibroblasts (CPE, CellTiter-Glo)", "format": "cell-based"}, "hCoV-OC43 [7]": {"system": "hCoV-OC43", "assay": "Anti-hCoV-OC43 activity in HCT-8 cells, concentration-dependent"}, "[8]": {"settings": "pH 7.4", "procedure": "as §1, §2"}, "hCoV-OC43 [9]": {"system": "hCoV-OC43", "assay": "Focus forming reduction assay (FFRA), hCoV-OC43 in HCT-8 cells, single concentration", "format": "cell-based", "settings": "Betacoronavirus 1, OC43, HCT-8, 72 h, HCT8 cells, 72 h p.i., vs DMSO control, read-out: % Decrease of hCoV-OC43 replication in presence of inhibitor 0.1 μM"}, "[10]": {"assay": "Solubility assay at pH 7.4 in PBS", "format": "physicochemical", "settings": "pH 7.4", "procedure": "Solubility assay at pH 7.4. […] The samples were shaken in an orbital shaker at 25° C. for 24 h. These suspensions were filtered through a PTFE 0.45 μm filter (VWR), and the solutions were chromatographically analyzed using a Perkin Elmer Ultra High Performance Liquid Chromatography (UHPLC) instrument, equipped with a reverse-phase (RP) C18 Phenomenex column (2.1×100 mm, 1.7 μm particle size). Gradient elution: the ratio of eluents A and B (0.1% trifluoroacetic acid in water and 0.1% trifluoroacetic acid in acetonitrile, respectively) changed linearly from 60% A-40% B to 0% A-100% B in 12 minutes, followed by 5 minutes in isocratic elution at 100% of eluent B and then 4 minutes in equilibration elution to reset the starting conditions. The flow rate was 0.5 mL/min. Standard injection volumes were either 2 or 4 μl for poorly soluble compounds. The detection system was a Perkin Elmer diode-array-detector. The wavelengths that were monitored for each compound were defined according to the compound's own absorption spectrum. Solubility, expressed as μM concentration of the saturated solution, was calculated via interpolation with external calibration curves that were obtained with solutions of each compound in acetonitrile."}, "recombinant hDHODH": {"molecular_target": "recombinant hDHODH (Homo sapiens (Human), UniProt Q02127)", "sequence (Q02127 whole entry)": "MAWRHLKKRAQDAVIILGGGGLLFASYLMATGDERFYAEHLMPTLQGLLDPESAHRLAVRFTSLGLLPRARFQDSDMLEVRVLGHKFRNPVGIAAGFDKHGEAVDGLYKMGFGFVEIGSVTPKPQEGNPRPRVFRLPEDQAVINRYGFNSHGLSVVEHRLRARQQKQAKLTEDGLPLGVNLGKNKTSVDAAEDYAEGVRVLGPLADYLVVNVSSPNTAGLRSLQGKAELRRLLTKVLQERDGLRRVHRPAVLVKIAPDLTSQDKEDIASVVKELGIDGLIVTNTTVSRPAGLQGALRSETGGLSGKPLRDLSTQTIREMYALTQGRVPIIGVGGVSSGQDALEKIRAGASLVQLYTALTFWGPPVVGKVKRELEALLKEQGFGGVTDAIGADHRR", "assay": "hDHODH inhibition assay (DCIP reduction)", "format": "biochemical", "settings": "recombinant GST-hDHODH; means ± SE of three independent experiments; read-out: hDHODH IC50 ± SE"}, "RSV [11]": {"system": "RSV", "settings": "literature value (ref 17); read-out: EC50 RSV from literature; cited from earlier work"}, "[12]": {"settings": "literature value (refs 15, 16); read-out: CC50 from literature (SARS-CoV-2); cited from earlier work"}, "SARS-CoV-2": {"system": "SARS-CoV-2", "settings": "literature value (refs 15, 16); read-out: EC50 SARS-CoV-2 from literature; cited from earlier work"}}, "note": "Read-outs that look alike come from different tables or passages of the source."}
{"smiles": "Nc1nc2c(ncn2COCCO)c(=O)[nH]1", "note": "[ACV]", "values": [{"measurement": "EC50", "setting": "HSV-1; read-out: EC50 anti-HSV of reference drug", "result": 0.18, "unit": "µM"}]}
{"smiles": "Cc1c(-c2ccc(-c3ccccc3F)cc2)nc2ccc(F)cc2c1C(=O)O", "note": "[Brequinar]", "values": [{"measurement": "CC50 at 72 h", "setting": "[1]", "result": 5, "unit": "µM"}, {"measurement": "EC50", "setting": "[2]", "result": 0.76, "unit": "µM"}, {"measurement": "Log D7.4 ± SD", "setting": "[3]", "result": "1.83 ± 0.02"}, {"measurement": "CC50 at 72 h", "setting": "in vitro [4]", "result": 168, "unit": "µM"}, {"measurement": "EC50", "setting": "RSV [5]", "result": 0.015, "unit": "µM"}, {"measurement": "EC50", "setting": "HSV-2", "result": 1.77, "unit": "µM"}, {"measurement": "CC50 at 3 days", "setting": "in vitro [6]", "result": 100, "unit": "µM"}, {"measurement": "EC50", "setting": "hCoV-229E; Human coronavirus 229E, MRC5, MRC5 fibroblasts", "result": "0.0427 ± 0.003", "unit": "µM"}, {"measurement": "EC50", "setting": "hCoV-229E; MRC5 fibroblasts", "result": 0.022, "unit": "µM"}, {"measurement": "EC50", "setting": "HSV-1; read-out: EC50 HSV-1", "result": 0.53, "unit": "µM"}, {"measurement": "EC50", "setting": "hCoV-OC43 [7]; read-out: EC50 hCoV-OC43", "result": 0.0427, "unit": "µM"}, {"measurement": "EC50", "setting": "hCoV-OC43 [7]; read-out: EC50 hCoV-OC43, listed as brequinar", "result": "0.022 ± 0.003", "unit": "µM"}]}
{"smiles": "O=C(Nc1c(F)c(F)c(-c2ccccc2)c(F)c1F)c1c(O)nn2c1CCCC2", "note": "[Compound 5, 2-Hydroxy-N-(2,3,5,6-tetrafluoro-[1,1′-biphenyl]-4-yl)-4,5,6,7-tetrahydropyrazolo[1,5-a]pyridine-3-carboxamide]", "values": [{"measurement": "Log D7.4 ± SD", "setting": "[8]", "result": "2.36 ± 0.02"}, {"measurement": "inhibition at 0.1 µM", "setting": "hCoV-OC43 [9]", "result": 31.3, "unit": "%"}, {"measurement": "Solubility in PBS", "setting": "[10]", "result": "<LOD"}, {"measurement": "IC50", "setting": "recombinant hDHODH", "result": "0.0058 ± 0.0004", "unit": "µM"}]}
{"smiles": "CCCOc1cccc(-c2c(F)c(F)c(NC(=O)c3c(O)nn4ccccc34)c(F)c2F)c1", "note": "[Compound 17, 2-Hydroxy-N-(2,3,5,6-tetrafluoro-3′-propoxy-[1,1′-biphenyl]-4-yl) pyrazolo[1,5-a]pyridine-3-carboxamide]", "values": [{"measurement": "Log D7.4 ± SD", "setting": "[8]", "result": "3.28 ± 0.12"}, {"measurement": "EC50", "setting": "HSV-2", "result": 0.11, "unit": "µM"}, {"measurement": "CC50 at 3 days", "setting": "in vitro [6]", "result": 117, "unit": "µM"}, {"measurement": "EC50", "setting": "HSV-1; read-out: EC50 HSV-1", "result": 0.09, "unit": "µM"}]}
{"smiles": "O=C(Nc1ccc2c(ccn2-c2ccccc2)c1)c1c(O)nn2ccccc12", "note": "[Compound 20, 2-Hydroxy-N-(1-phenyl-1H-indol-5-yl)pyrazolo[1,5-a]pyridine-3-carboxamide]", "values": [{"measurement": "melting point", "result": "133.6 to 135.9", "unit": "°C"}, {"measurement": "Log D7.4 ± SD", "setting": "[3]", "result": "2.89 ± 0.05"}, {"measurement": "IC50", "setting": "recombinant hDHODH", "result": "2.76 ± 0.386", "unit": "µM"}]}
{"smiles": "O=C(Nc1ccc2c(c1)ncn2-c1ccccc1)c1c(O)nn2ccccc12", "note": "[Compound 21, 2-Hydroxy-N-(1-phenyl-1H-benzo[d]imidazol-5-yl)pyrazolo[1,5-a]pyridine-3-carboxamide]", "values": [{"measurement": "melting point", "result": "133.6 to 135.9", "unit": "°C"}, {"measurement": "Log D7.4 ± SD", "setting": "[3]", "result": "2.55 ± 0.04"}, {"measurement": "IC50", "setting": "recombinant hDHODH", "result": "> 10", "unit": "µM"}]}
{"smiles": "O=C(Nc1ccc2c(c1)nnn2-c1ccccc1)c1c(O)nn2ccccc12", "note": "[Compound 22, 2-Hydroxy-N-(1-phenyl-1H-benzo[d][1,2,3]triazol-5-yl)pyrazolo[1,5-a]pyridine-3-carboxamide]", "values": [{"measurement": "melting point", "result": "133.6 to 135.9", "unit": "°C"}, {"measurement": "Log D7.4 ± SD", "setting": "[3]", "result": "1.59 ± 0.03"}, {"measurement": "IC50", "setting": "recombinant hDHODH", "result": "7.2 ± 1.6", "unit": "µM"}]}
{"smiles": "CC(F)(F)COc1cccc(-c2c(F)c(F)c(NC(=O)c3c(O)nn4ccccc34)c(F)c2F)c1", "note": "[Compound 40, N-(3′-(2,2-difluoropropoxy)-2,3,5,6-tetrafluoro-[1,1′-biphenyl]-4-yl)-2-hydroxypyrazolo[1,5-a]pyridine-3-carboxamide]", "values": [{"measurement": "melting point", "result": "229.6 to 231.7", "unit": "°C"}, {"measurement": "IC50", "setting": "recombinant hDHODH", "result": "0.00148 ± 0.0002", "unit": "µM"}]}
{"smiles": "O=c1nc(NO)ccn1[C@@H]1O[C@H](CO)[C@@H](O)[C@H]1O", "note": "[EIDD-1931]", "values": [{"measurement": "EC50", "setting": "RSV [11]", "result": 0.69, "unit": "µM"}, {"measurement": "CC50", "setting": "[12]", "result": "> 10", "unit": "µM"}, {"measurement": "EC50", "setting": "SARS-CoV-2", "result": 0.3, "unit": "µM"}]}
{"smiles": "CCC(CC)COC(=O)[C@H](C)N[P@](=O)(OC[C@H]1O[C@@](C#N)(c2ccc3c(N)ncnn23)[C@H](O)[C@@H]1O)Oc1ccccc1", "note": "[Remdesivir]", "values": [{"measurement": "CC50", "setting": "[12]", "result": "> 100", "unit": "µM"}, {"measurement": "EC50", "setting": "hCoV-229E; Human coronavirus 229E, MRC5 fibroblasts", "result": "0.0348 ± 0.005", "unit": "µM"}, {"measurement": "EC50", "setting": "hCoV-OC43 [7]; read-out: EC50 hCoV-OC43", "result": "0.147 ± 0.034", "unit": "µM"}]}
